# Experimental data: US6730521B1, “Chemical and biochemical assay method and apparatus” (The Technology Partnership PLC, priority 1999, dated 2004)
# Biological target: T1, streptavidin (Streptomyces avidinii, UniProt P22629)
# T1 construct: purchased Dynal
# Test: FITC-biotin binding to a single streptavidin-coated bead in a scanned droplet
# Settings: 5 μl of 48 nM FITC-biotin plus 5 μl buffer with a single 2.8 μm streptavidin bead; equilibrium after 30 minutes
# Procedure: A 5 μl sample of a solution of 48 nM fluorescein isothiocyanate-labelled biotin (FITC-biotin) is added to 5 μl of a solution of buffer containing a single 2.8 μm diameter bead coated with streptavidin (obtained from Dynal). The sample was presented to the instrument for scanning as a 10 μl droplet on the surface of a glass microscope slide. Illumination and light collection was arranged from above the sample. The instrument was set to take fluorescent intensity measurements at 1 μm intervals across the sample in the x-direction with a line-to-line step of 2.2 μm in the y-direction. As the laser spot size was 6 μmm, this allowed for overlap between each scan line. The graphs plot the relative intensity (analogue-to-digital converter or ADC counts) against position (sample number) for several adjacent scan lines. Initially, the FITC-biotin has had insufficient time to diffuse to the streptavidin sites concentrated on the bead. The sample was scanned at intervals over the period of the experiment. It can be readily appreciated that the signal obtained from the illumination will be proportional to the number of molecules of label (FITC-biotin) in the path of the laser at each point. If, as in this case, the label is homogenous throughout the droplet then the signal at each point is proportional to the path length of the laser through the sample. […]
# T1 sequence (P22629 25-183): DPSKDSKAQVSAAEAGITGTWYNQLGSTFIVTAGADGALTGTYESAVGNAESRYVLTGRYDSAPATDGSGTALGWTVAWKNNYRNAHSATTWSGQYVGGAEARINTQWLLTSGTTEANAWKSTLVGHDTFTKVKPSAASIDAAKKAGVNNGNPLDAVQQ
substance,measurement,value
fluorescein isothiocyanate-labelled biotin [FITC-biotin],PVS/UVS signal ratio at equilibrium,approx. 6.1
